{
  "source": "patent US12551479B2",
  "about": "“Acyl-protein thioesterase inhibitor for the treatment and/or prevention of Huntington's disease” (UNIVERSITÉ GRENOBLE ALPES, priority 2019, dated 2026)",
  "key": {"[1]": {"tested_on": "cortical neurons from WT and Hdh^CAG/+ mice", "experiment": "BDNF-mCherry axonal transport in corticostriatal network on microfluidic device", "type": "cell-based, mouse", "experimental": "Referring to FIG. 3A, the inventors have reproduced the corticostriatal network in vitro on a microfluidic device consisting of two neuronal chambers that are connected via microchannels. Experiments are performed over a period of time ranging from 2 to 12 days in vitro (Days in vitro), i.e. DIV2 to DIV12, and a fixation/acquisition at DIV12.\nFor striatal StHdh cells, acute treatment was performed at 10 μM for 1 hour before and during the acquisition time. For neurons within the microchambers, treatments were started at DIV2 until DIV12 every day at 1 μM in each compartment of the microfluidic device.\nThe inventors then investigated whether ML-348 is able to restore dysfunctions of the corticostriatal network in Huntington's disease. Indeed, corticostriatal circuit is particularly altered in Huntington's disease, which manifests itself by a dysfunction and a degeneration of both the striatal neurons and their corticostriatal afferences. They developed a microfluidic-based approach that enables the reconstruction of a time- and space-controlled neuronal network compatible with fast spinning confocal videomicroscopy. This system uses a silicon polymer-based microfluidic device composed of two fluidically-isolated neuronal chambers that are connected via a set of thin microchannels through which neurites can grow and contact each other in an intermediate synaptic compartment. Using primary neuron cultures, they reconstituted a corticostriatal network in which cortical neurons project to striatal target neurons through oriented axodendritic connections (FIG. 3A). These devices are compatible with drug treatment and therefore can be used to test pharmacological agents in vitro on this functional circuit.\nCortical neurons from WT and Hdh^CAG/+ mice were infected with BDNF-mCherry lentivirus and acquisitions were performed at Day 12 in the distal part of the long microchannels to analyze axonal transport of BDNF (FIG. 3B). As expected, defects in axonal transport in HD (Huntington's disease) neurons were identified for both the anterograde and retrograde transport velocities, and also in the number of vesicles travelling along the microtubules (FIG. 3C-3E). These effects lead to a reduction of the linear net flux with no impact one the directionality of the vesicles (FIGS. 3F and 3G)."}, "[2]": {"tested_on": "cortical neurons derived from human induced pluripotent stem cells (iPSCs) from Huntington's disease patients", "experiment": "BDNF-mCherry axonal trafficking in hiPSC-derived cortical neurons in microfluidic device", "type": "cell-based", "details": "1 μM daily for 7 days vs DMSO", "experimental": "Referring to FIG. 7A, the inventors again reproduced the corticostriatal network in vitro on a microfluidic device consisting of two neuronal chambers that are connected via microchannels. Experiments are performed over a period ranging from 0 to 40 days in vitro (DIV), the first 20 days for neuronal cell generation and differentiation of hiPSCs, followed by the introduction of the cells into the microfluidic device. 3 hours after introduction, cells were infected from the pre-synaptic compartment with a lentivirus encoding BDNF-mCHerry.\nThe human iPSC line ND42222 (RRID:CVCL_Y844 passage 42) “109Q” was obtained from Coriell Cell Repositories. This line is heterozygous for HTT p.Gln18[109] and therefore has 109 CAG repeats in one of the two HTT alleles. Amplification of human iPSCs, generation of neuronal cells and terminal differentiation were performed according to the work published in Gribaudo S. et al. (Stem Cell Reports 12, 230-244, 2019). 109Q cells were maintained on Vitronectin-coated plates (Life Technology) in mTeSRplus medium ([…] Technologies). Cultures were fed every other day and passaged by manual dissociation using 0.02% EDTA pH 7.2 (Merck Sigma-Aldrich) every 4-5 days. For neuronal differentiation, hiPSC colonies were treated (DIV0) as previously described (Nicoleau et al., 2013) in N2B27 medium consisting of 50% DMEMF-12 Glutamax, 50% neurobasal medium, 2% B27 supplement 50× without vitamin A, 1% N2 supplement, 0.1% penicillin streptomycin, and 50 μM β-mercaptoethanol (Thermofisher). Neuronal differentiation was initiated by passage of hiPSCs in N2B27 medium supplemented with SB431542 (20 μM, Tocris), LDN-193189 (100 nM, Sigma Aldrich) and XAV_939 (1 μM, Tocris) and 10 μM ROCK inhibitor (Y27632, Calbiochem) on low-adhesion culture plates (Greiner) for 6 hours. The medium was changed every day from DIV0 to DIV20. At DIV1, hiPSC aggregates were transferred to laminin poly-ornitine-coated dishes without Y27632. From DIV5 to DIV9, SB431542 was removed and FGF2 (10 ng/ml) and cyclopamine 1 μM (Merck) were added. […]"}, "Hdh^CAG140/+ mice": {"tested_on": "Hdh^CAG140/+ mice", "experiment": "Novelty-Suppressed Feeding test", "type": "in vivo, mouse", "details": "Hdh^CAG/+ mice, 0.3 mg/kg/day subcutaneous infusion", "experimental": "Mice littermates were grouped into mixed treatment groups. Males and females were 6 months of age at the beginning of the treatment. For each specific test, all experimental groups were tested on the same day, during the light phase and between Days 16 and 28 of treatment. Prior to testing, mice were acclimatized to the test room for a period of 30 minutes. Treatments were randomly assigned and behavioral tests were performed 12 days before the end of the delivery of the treatment. […] Mice were excluded from analysis if their performance was calculated as a significant outlier by the Grubb test. One mouse was excluded based on these criteria. Mouse weights were measured prior to the start of treatment and until the end of testing.\nThe test was performed as in Pla et al., 2013. Animals were food-deprived during 24 hours to increase motivation to consume food. On the day of testing, mice were placed within the testing apparatus, which consisted of a plastic box (50 cm×30 cm×15 cm), the floor of which covered with wooden bedding. Mice were videorecorded and allowed to freely explore the area until they eat the food pellet or for a maximum of 10 minutes. The mice were considered to eat the pellet when they bite the pellet while sitting comfortably."}, "[3]": {"details": "Hdh^CAG/+ network, 1 μM daily DIV2 to DIV12"}},
  "data": [
    {"smiles": "O=C(CN1CCN(C(=O)c2ccco2)CC1)Nc1cc(C(F)(F)F)ccc1Cl", "note": "[ML-348]", "values": [
      {"measurement": "anterograde and retrograde transport velocities of BDNF-mCherry", "setting": "[1]; [3]", "value": "restored to values approximately equal to those of the wild type"},
      {"measurement": "linear net flow of BDNF-mCherry vesicles", "setting": "[1]; [3]", "value": "restored to values approximately equal to those of the wild type"},
      {"measurement": "number of anterograde and retrograde vesicles moving over 100 μm for 30 seconds", "setting": "[1]; [3]", "value": "restored to values approximately equal to those of the wild type"},
      {"measurement": "effect on BDNF trafficking in WT neurons", "setting": "[1]; WT neurons, 1 μM daily", "value": "inhibitory effect on BDNF trafficking"},
      {"measurement": "anterograde and retrograde transport velocities of BDNF-mCherry vesicles", "setting": "[2]", "value": "not statistically significant"},
      {"measurement": "linear net flow", "setting": "[2]", "value": "significantly increased"},
      {"measurement": "number of vesicles moving in either direction (anterograde, retrograde)", "setting": "[2]", "value": "significantly increased"},
      {"measurement": "latency to feeding in a new environment", "setting": "Hdh^CAG140/+ mice", "value": "restores the behavior of Hdh^CAG/+ mice to that of wild-type mice"}
    ]}
  ]
}
